Results reported in patent US20230019491A1, “PYRIMIDINE TBK/IKKe INHIBITOR COMPOUNDS AND USES THEREOF” (Merck Patent GmbH, priority 2017, published 2023).
Where a name gives a salt, the structure may show the parent alone.

Legend:
IKKε = target: T1, IKKε (Homo sapiens, UniProt Q14164); assay: IKKε biochemical assay; details: 10 point 1:4 dose response, 30 uM top concentration, 90 min at 25° C., LabChip EZ Reader II; read-out: IKKε_IC50
T1 sequence (Q14164 1-716): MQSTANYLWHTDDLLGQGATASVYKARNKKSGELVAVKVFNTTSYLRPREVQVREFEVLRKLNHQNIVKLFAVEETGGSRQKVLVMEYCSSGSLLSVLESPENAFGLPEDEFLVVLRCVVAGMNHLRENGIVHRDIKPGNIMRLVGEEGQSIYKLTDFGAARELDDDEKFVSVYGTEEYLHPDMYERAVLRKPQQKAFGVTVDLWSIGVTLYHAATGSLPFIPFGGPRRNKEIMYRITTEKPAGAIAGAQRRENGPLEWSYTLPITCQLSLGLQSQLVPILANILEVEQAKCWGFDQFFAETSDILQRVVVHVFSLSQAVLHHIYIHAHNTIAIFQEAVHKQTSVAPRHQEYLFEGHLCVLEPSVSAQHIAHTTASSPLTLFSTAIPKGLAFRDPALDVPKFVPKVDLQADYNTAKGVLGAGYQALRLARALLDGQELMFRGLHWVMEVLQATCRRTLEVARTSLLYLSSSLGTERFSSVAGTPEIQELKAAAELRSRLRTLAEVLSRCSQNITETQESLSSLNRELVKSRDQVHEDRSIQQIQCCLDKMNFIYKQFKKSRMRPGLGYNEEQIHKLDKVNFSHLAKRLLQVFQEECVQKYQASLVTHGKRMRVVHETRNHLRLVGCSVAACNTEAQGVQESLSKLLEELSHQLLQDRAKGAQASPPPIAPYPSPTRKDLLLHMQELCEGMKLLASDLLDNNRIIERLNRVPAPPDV
Procedure, shortened: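 Mobility-shift LabChip read-out followed a 90 min, 25° C. reaction of IKKε with substrate and test compound, with DMSO held at 1% final. Reactions were ended with stop buffer. Wells with 10 uM final staurosporine defined complete inhibition, and DMSO-only wells the uninhibited level.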

TBK1 = target: T2, TBK1 (Homo sapiens, UniProt Q9UHD2); assay: TBK biochemical assay; details: 10 point 1:4 dose response, 30 uM top concentration, 90 min at 25° C., LabChip EZ Reader II; read-out: TBK1_IC50
T2 sequence (Q9UHD2 1-729): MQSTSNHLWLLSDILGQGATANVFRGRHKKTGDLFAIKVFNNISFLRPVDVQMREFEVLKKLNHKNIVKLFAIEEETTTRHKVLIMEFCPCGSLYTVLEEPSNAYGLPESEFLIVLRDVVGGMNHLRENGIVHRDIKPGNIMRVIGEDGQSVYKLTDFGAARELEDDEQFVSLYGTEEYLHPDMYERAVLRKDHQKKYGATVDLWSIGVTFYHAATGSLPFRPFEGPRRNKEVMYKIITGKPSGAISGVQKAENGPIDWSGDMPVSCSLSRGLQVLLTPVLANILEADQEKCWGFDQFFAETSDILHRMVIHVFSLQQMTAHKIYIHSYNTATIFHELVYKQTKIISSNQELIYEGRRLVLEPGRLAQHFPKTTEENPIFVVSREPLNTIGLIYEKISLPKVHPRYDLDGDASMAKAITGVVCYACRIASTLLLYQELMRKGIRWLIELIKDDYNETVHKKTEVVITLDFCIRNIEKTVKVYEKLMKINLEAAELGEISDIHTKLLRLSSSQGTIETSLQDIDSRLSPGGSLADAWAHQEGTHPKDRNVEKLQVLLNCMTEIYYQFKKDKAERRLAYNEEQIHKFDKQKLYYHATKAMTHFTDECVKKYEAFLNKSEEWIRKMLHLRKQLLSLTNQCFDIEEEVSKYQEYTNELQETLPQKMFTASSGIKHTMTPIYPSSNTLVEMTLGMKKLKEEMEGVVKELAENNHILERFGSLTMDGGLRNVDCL
Procedure, shortened: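 Read-out was a Caliper LabChip mobility-shift assay, run after a 90-min, 25 °C reaction of TBK1 with substrate and compounds, quenched with stop buffer. Control wells received staurosporine at 10 uM final.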

IC50 (IKKε) [µM]	IC50 (TBK1) [µM]	Compound
< 0.1	< 0.1	N#Cc1cc(-c2ccnc(Nc3ccc(C4CCN(C5COC5)C4)cc3)n2)ccc1OC1CCNCC1(F)F (stereo not drawn) [Example 155, 2-(3,3-Difluoro-piperidin-4-yloxy)-5-{2-[4-(1-oxetan-3-yl-pyrrolidin-3-yl)-phenylamino]-pyrimidin-4-yl}-benzonitrile hydrochloride]
< 0.1	< 0.1	N#Cc1cc(-c2ccnc(Nc3cccc(C4CCN(C(CO)CO)CC4)c3)n2)ccc1OC1CCNCC1(F)F (stereo not drawn) [Example 156, 2-(3,3-Difluoro-piperidin-4-yloxy)-5-(2-{3-[1-(2-hydroxy-1-hydroxymethyl-ethyl)-piperidin-4-yl]-phenylamino}-pyrimidin-4-yl)-benzonitrile]
< 0.1	< 0.1	C[C@H](O)C(=O)N1CCC(Oc2ccc(-c3ccnc(Nc4cccc(C5CCN(C(CO)CO)CC5)c4)n3)cc2C#N)C(F)(F)C1 (stereo partly drawn) [Example 157, 2-[3,3-Difluoro-1-((S)-2-hydroxy-propionyl)-piperidin-4-yloxy]-5-(2-{3-[1-(2-hydroxy-1-hydroxymethyl-ethyl)-piperidin-4-yl]-phenylamino}-pyrimidin-4-yl)-benzonitrile]
< 0.1	< 0.1	C[C@@H](O)C(=O)N1CCC(Oc2ccc(-c3ccnc(Nc4cccc(C5CCN(C(CO)CO)CC5)c4)n3)cc2C#N)C(F)(F)C1 (stereo partly drawn) [Example 158, 2-[3,3-Difluoro-1-((R)-2-hydroxy-propionyl)-piperidin-4-yloxy]-5-(2-{3-[1-(2-hydroxy-1-hydroxymethyl-ethyl)-piperidin-4-yl]-phenylamino}-pyrimidin-4-yl)-benzonitrile]
< 0.1	< 0.1	N#Cc1cc(-c2ccnc(Nc3ccc(N4CCN(C5COC5)CC4)cc3)n2)ccc1OC1COC1 [Example 159, 5-[2-([4-[4-(oxetan-3-yl)piperazin-1-yl]phenyl]amino)pyrimidin-4-yl]-2-(oxetan-3-yloxy)benzonitrile]
0.1 to 1	0.1 to 1	COc1nc(Nc2nccc(-c3ccc(OC4COC4)c(C#N)c3)n2)ccc1N1CCN(C2COC2)CC1 [Example 160, 5-[2-([6-methoxy-5-[4-(oxetan-3-yl)piperazin-1-yl]pyridin-2-yl]amino)pyrimidin-4-yl]-2-(oxetan-3-yloxy)benzonitrile]
< 0.1	< 0.1	N#Cc1cc(-c2ccnc(Nc3ccc(N4CCN(C5COC5)CC4)cc3)n2)ccc1OC1CCOC1 (stereo not drawn) [Example 161, 5-[2-([4-[4-(oxetan-3-yl)piperazin-1-yl]phenyl]amino)pyrimidin-4-yl]-2-(oxolan-3-yloxy)benzonitrile]
< 0.1	< 0.1	COc1nc(Nc2nccc(-c3ccc(OC4CCOC4)c(C#N)c3)n2)ccc1N1CCN(C2COC2)CC1 (stereo not drawn) [Example 162, 5-[2-([6-methoxy-5-[4-(oxetan-3-yl)piperazin-1-yl]pyridin-2-yl]amino)pyrimidin-4-yl]-2-(oxolan-3-yloxy)benzonitrile]
< 0.1	< 0.1	CN1CCN(c2ccc(Nc3nccc(-c4ccc(OC5CCOCC5)c(C#N)c4)n3)cc2)CC1 [Example 163, 5-{2-[4-(4-Methyl-piperazin-1-yl)-phenylamino]-pyrimidin-4-yl}-2-(tetrahydro-pyran-4-yloxy)-benzonitrile]
< 0.1	< 0.1	CN1CCN(c2ccc(Nc3nccc(-c4ccc(OC5CCOCC5)c(C#N)c4)n3)nc2)CC1 [Example 164, 5-(2-[[5-(4-methylpiperazin-1-yl)pyridin-2-yl]amino]pyrimidin-4-yl)-2-(oxan-4-yloxy)benzonitrile]
< 0.1	< 0.1	N#Cc1cc(-c2ccnc(Nc3ccc(N4CCN(C5COC5)CC4)cn3)n2)ccc1OC1CCOCC1 [Example 165, 5-{2-[5-(4-Oxetan-3-yl-piperazin-1-yl)-pyridin-2-ylamino]-pyrimidin-4-yl}-2-(tetrahydro-pyran-4-yloxy)-benzonitrile]
< 0.1	< 0.1	COCCN1CCN(c2ccc(Nc3nccc(-c4ccc(OC5CCOCC5)c(C#N)c4)n3)nc2OC)CC1 [Example 166]
< 0.1	< 0.1	COc1nc(Nc2nccc(-c3ccc(OC4CCOCC4)c(C#N)c3)n2)ccc1N1CCN(CCO)CC1 [Example 167, 5-[2-([5-[4-(2-hydroxyethyl)piperazin-1-yl]-6-methoxypyridin-2-yl]amino)pyrimidin-4-yl]-2-(oxan-4-yloxy)benzonitrile]
< 0.1	< 0.1	COc1nc(Nc2nccc(-c3ccc(OC4CCOCC4)c(C#N)c3)n2)ccc1N1CCN(C(C)=O)CC1 [Example 168, 5-(2-[[5-(4-acetylpiperazin-1-yl)-6-methoxypyridin-2-yl]amino]pyrimidin-4-yl)-2-(oxan-4-yloxy)benzonitrile]
< 0.1	< 0.1	COc1nc(Nc2nccc(-c3ccc(OC4CCOCC4)c(C#N)c3)n2)ccc1N1CCN(C2COC2)CC1 [Example 169, 5-{2-[6-Methoxy-5-(4-oxetan-3-yl-piperazin-1-yl)-pyridin-2-ylamino]-pyrimidin-4-yl}-2-(tetrahydro-pyran-4-yloxy)-benzonitrile]
< 0.1	< 0.1	COc1nc(Nc2nccc(-c3ccc(OC4CCOCC4F)c(C#N)c3)n2)ccc1N1CCN(C2COC2)CC1 (stereo not drawn) [Example 170, 2-(3-Fluoro-tetrahydro-pyran-4-yloxy)-5-{2-[6-methoxy-5-(4-oxetan-3-yl-piperazin-1-yl)-pyridin-2-ylamino]-pyrimidin-4-yl}-benzonitrile]
< 0.1	< 0.1	N#Cc1cc(-c2ccnc(Nc3ccc(N4CCN(C5COC5)CC4)cc3)n2)ccc1OC1CNC1 [Example 171, 2-(azetidin-3-yloxy)-5-[2-([4-[4-(oxetan-3-yl)piperazin-1-yl]phenyl]amino)pyrimidin-4-yl]benzonitrile]
0.1 to 1	0.1 to 1	C[C@H](O)C(=O)N1CC(Oc2ccc(-c3ccnc(Nc4ccc(N5CCN(C6COC6)CC5)cc4)n3)cc2C#N)C1 [Example 172, 2-([1-[(2S)-2-hydroxypropanoyl]azetidin-3-yl]oxy)-5-[2-([4-[4-(oxetan-3-yl)piperazin-1-yl]phenyl]amino)pyrimidin-4-yl]benzonitrile]
0.1 to 1	0.1 to 1	C[C@@H](O)C(=O)N1CC(Oc2ccc(-c3ccnc(Nc4ccc(N5CCN(C6COC6)CC5)cc4)n3)cc2C#N)C1 [Example 173, 2-([1-[(2R)-2-hydroxypropanoyl]azetidin-3-yl]oxy)-5-[2-([4-[4-(oxetan-3-yl)piperazin-1-yl]phenyl]amino)pyrimidin-4-yl]benzonitrile]
< 0.1	< 0.1	COc1nc(Nc2nccc(-c3ccc(OC4CNC4)c(C#N)c3)n2)ccc1N1CCN(C2COC2)CC1 [Example 174, 2-(azetidin-3-yloxy)-5-[2-([6-methoxy-5-[4-(oxetan-3-yl)piperazin-1-yl]pyridin-2-yl]amino)pyrimidin-4-yl]benzonitrile]
0.1 to 1	0.1 to 1	COc1nc(Nc2nccc(-c3ccc(OC4CN(C(=O)[C@H](C)O)C4)c(C#N)c3)n2)ccc1N1CCN(C2COC2)CC1 [Example 175, 2-([1-[(2S)-2-hydroxypropanoyl]azetidin-3-yl]oxy)-5-[2-([6-methoxy-5-[4-(oxetan-3-yl)piperazin-1-yl]pyridin-2-yl]amino)pyrimidin-4-yl]benzonitrile]
